Patent US7067624B2, “Antimicrobial proteins” (Commonwealth Scientific and Industrial Research Organisation, priority 1996, dated 2006)
Read-outs that look alike come from different tables or passages of the source. Where no end group is shown, it is not given here.

Key:
fungi and bacteria = assay: Antifungal and antibacterial activity bioassays, results in words; type: cell-based; details: for antimicrobial / antifungal activity (in words): bioassays as in Example 2
Ralstonia solanacearum = type: cell-based
Candida albicans = assay: Antifungal growth inhibition bioassay (96-well, A600); type: cell-based
[1] = system: Clavibacter michiganensis; assay: Antibacterial growth inhibition bioassay (96-well, A600); type: cell-based
Alternaria helianthi = details: Table 1, no added Ca2+
Saccharomyces cerevisiae = assay: Antifungal growth inhibition bioassay (96-well, A600); type: cell-based
Chalara elegans = assay: as above; type: cell-based
[2] = system: Pseudomonas syringae tabaci; assay: Antibacterial growth inhibition bioassay (96-well, A600); type: cell-based
Cercospora nicotianae = assay: Antifungal growth inhibition bioassay (96-well, A600); type: cell-based
Escherichia coli = assay: Antibacterial growth inhibition bioassay (96-well, A600); type: cell-based
[3] = system: Phytophthora parasitica nicotiana; assay: Antifungal growth inhibition bioassay (96-well, A600); type: cell-based
Phytophthora cryptogea = assay: as above; type: cell-based
Ceratocystis paradoxa = assay: as above; type: cell-based
[4] = Table 1, 1 mM Ca2+ in test medium

PRHMQIAQQRAERRAEKEKRKQQKR [MiAMP2c pep2]
IC50 values, Ss (Sclerotinia sclerotiorum): 50 µg/mL
IC50 values, Vd (Verticillium dahliae): 10 to 20 µg/mL
IC50 values, Lm (Leptosphaeria maculans): 10 to 20 µg/mL
antimicrobial / antifungal activity (in words) (fungi and bacteria): inhibitory activity against a variety of fungi
IC50 values, Foc (Fusarium oxysporum): 10 to 20 µg/mL

MiAMP2c: 47-amino-acid antimicrobial protein purified from Macadamia integrifolia seeds; amino acids 118 to 164 of clone 3 (SEQ ID NO: 5) (RKQQKRYEEQQREDEEKYEERMKEGDNKRDPQQREYEDCRRHCEQQE; Partial mature peptide)
IC50 + Ca^2+ (Ralstonia solanacearum; [4]): >50 µg/mL
IC50 (concentration at which 50% inhibition of growth was observed) (Ralstonia solanacearum; Table 1, no added Ca2+): >50 µg/mL
IC50 + Ca^2+ (Candida albicans; [4]): >50 µg/mL
IC50 (concentration at which 50% inhibition of growth was observed) (Candida albicans; Table 1, no added Ca2+): >50 µg/mL
IC50 + Ca^2+ [1, 4]: >50 µg/mL
IC50 (concentration at which 50% inhibition of growth was observed) ([1]; Table 1, no added Ca2+): 50 µg/mL
IC50 (concentration at which 50% inhibition of growth was observed) (Alternaria helianthi): 5 to 10 µg/mL
IC50 + Ca^2+ (Saccharomyces cerevisiae; [4]): >50 µg/mL
IC50 (concentration at which 50% inhibition of growth was observed) (Saccharomyces cerevisiae; Table 1, no added Ca2+): 20 to 50 µg/mL
IC50 + Ca^2+ (Chalara elegans; [4]): 10 to 20 µg/mL
IC50 (concentration at which 50% inhibition of growth was observed) (Chalara elegans; Table 1, no added Ca2+): 2 to 5 µg/mL
IC50 + Ca^2+ (Sclerotinia sclerotiorum; Table 1, Sclerotinia sclerotiorum, 1 mM Ca2+ in test medium): >50 µg/mL
IC50 (concentration at which 50% inhibition of growth was observed) (Sclerotinia sclerotiorum; Table 1, Sclerotinia sclerotiorum, no added Ca2+): 20 to 50 µg/mL
IC50 values, Ss (Sclerotinia sclerotiorum; Table 2, Sclerotinia sclerotiorum, media A without added Ca2+): 20 to 50 µg/mL
IC50 + Ca^2+ (Verticillium dahliae; Table 1, Verticillium dahliae, 1 mM Ca2+ in test medium): >50 µg/mL
IC50 (concentration at which 50% inhibition of growth was observed) (Verticillium dahliae; Table 1, Verticillium dahliae, no added Ca2+): 5 to 10 µg/mL
IC50 values, Vd (Verticillium dahliae; Table 2, Verticillium dahliae, media A without added Ca2+): 5 to 10 µg/mL
IC50 + Ca^2+ [2, 4]: >50 µg/mL
IC50 (concentration at which 50% inhibition of growth was observed) ([2]; Table 1, no added Ca2+): >50 µg/mL
IC50 + Ca^2+ (Cercospora nicotianae; [4]): 5 to 10 µg/mL
IC50 (concentration at which 50% inhibition of growth was observed) (Cercospora nicotianae; Table 1, no added Ca2+): 5 to 10 µg/mL
IC50 + Ca^2+ (Escherichia coli; [4]): >50 µg/mL
IC50 (concentration at which 50% inhibition of growth was observed) (Escherichia coli; Table 1, no added Ca2+): >50 µg/mL
IC50 + Ca^2+ [3, 4]: >50 µg/mL
IC50 (concentration at which 50% inhibition of growth was observed) ([3]; Table 1, no added Ca2+): 10 to 20 µg/mL
IC50 + Ca^2+ (Phytophthora cryptogea; [4]): 10 to 25 µg/mL
IC50 (concentration at which 50% inhibition of growth was observed) (Phytophthora cryptogea; Table 1, no added Ca2+): 5 to 10 µg/mL
effect of Ca2+ on inhibitory activity (in words) (fungi and bacteria; 1 mM Ca2+ in the test medium): greatly reduced (although not eliminated)
IC50 + Ca^2+ (Fusarium oxysporum; Table 1, Fusarium oxysporum, 1 mM Ca2+ in test medium): 20 to 50 µg/mL
IC50 values, Foc (Fusarium oxysporum; Table 2, Fusarium oxysporum, media A without added Ca2+): 10 µg/mL
IC50 + Ca^2+ (Ceratocystis paradoxa; [4]): >50 µg/mL
IC50 (concentration at which 50% inhibition of growth was observed) (Ceratocystis paradoxa; Table 1, no added Ca2+): 20 to 50 µg/mL
IC50 values, Cp (Ceratocystis paradoxa; Table 2, media A without added Ca2+): 20 to 50 µg/mL

RQRDPQQQAEQAQKRAQRRETE [MiAMP2c pep1]
IC50 values, Ss (Sclerotinia sclerotiorum): >50 µg/mL
antimicrobial / antifungal activity (in words) (fungi and bacteria): little or no activity
